Test results reported in patent US10654837B2, “Sulphamoylaryl derivatives and use thereof as medicaments for the treatment of liver fibrosis” (Janssen Pharmaceutica NV, priority 2017, dated 2020).

target: T1, 5HTR2B (Homo sapiens, UniProt P41595); assay: 5HTR2B antagonist activity, calcium mobilization assay in human Maverick/293 cells (serotonin as agonist); assay type: cell-based; details: intracellular calcium, emission 525 nm, read-out: Ca assay IC50
T1 construct: host or cells: human Maverick/293 cells
T1 sequence (P41595 whole entry): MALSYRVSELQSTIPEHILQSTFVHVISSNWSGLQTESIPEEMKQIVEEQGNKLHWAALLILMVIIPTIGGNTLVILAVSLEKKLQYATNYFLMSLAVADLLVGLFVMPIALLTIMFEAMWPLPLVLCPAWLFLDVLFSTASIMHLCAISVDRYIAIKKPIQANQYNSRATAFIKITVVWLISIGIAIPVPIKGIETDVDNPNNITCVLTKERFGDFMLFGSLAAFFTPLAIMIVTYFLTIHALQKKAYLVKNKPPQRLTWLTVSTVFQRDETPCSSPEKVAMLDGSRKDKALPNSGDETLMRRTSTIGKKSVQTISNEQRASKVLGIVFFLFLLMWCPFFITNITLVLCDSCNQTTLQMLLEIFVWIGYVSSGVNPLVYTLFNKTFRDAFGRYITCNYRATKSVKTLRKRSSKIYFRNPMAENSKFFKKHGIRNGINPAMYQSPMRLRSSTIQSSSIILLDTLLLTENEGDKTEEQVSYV
Outline: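 Calcium mobilization read over 80 s at ex 485/em 525 nm after serotonin addition. Before that, 2 h serum-free starvation, 50 min dye loading at 37 °C, and 15-30 min antagonist exposure. IC50 from sigmoidal fit of peak % inhibition.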

SMILES	IC50
COc1ccc(S(=O)(=O)N[C@H]2C[C@@H](O)C2)cc1C(=O)Nc1ccc(F)c(C)n1 [Compound 141]	2.8 nM
COc1ccc(S(=O)(=O)N[C@H]2C[C@H](O)C2)cc1C(=O)Nc1ccc(F)c(C(F)F)c1 [Compound 142a, N-(3-(difluoromethyl)-4-fluorophenyl)-5-(N-((trans)-3-hydroxycyclobutyl)sulfamoyl)-2-methoxybenzamide]	2.2 nM
COc1ccc(S(=O)(=O)N[C@H]2C[C@@H](O)C2)cc1C(=O)Nc1ccc(F)c(C(F)F)c1 [Compound 142b, N-(3-(difluoromethyl)-4-fluorophenyl)-5-(N-((cis)-3-hydroxycyclobutyl)sulfamoyl)-2-methoxybenzamide]	1.1 nM
COc1ccc(S(=O)(=O)N[C@H]2C[C@H](O)C2)cc1C(=O)Nc1ccc(Cl)cc1F [Compound 143a, N-(4-chloro-2-fluorophenyl)-5-(N-((trans)-3-hydroxycyclobutyl)sulfamoyl)-2-methoxybenzamide]	0.7 nM
COc1ccc(S(=O)(=O)N[C@H]2C[C@@H](O)C2)cc1C(=O)Nc1ccc(Cl)cc1F [Compound 143b, N-(4-chloro-2-fluorophenyl)-5-(N-((cis)-3-hydroxycyclobutyl)sulfamoyl)-2-methoxybenzamide]	5.9 nM
COc1ccc(S(=O)(=O)N[C@H]2C[C@H](O)C2)cc1C(=O)Nc1ccc(F)cc1Cl [Compound 144a, N-(2-chloro-4-fluorophenyl)-5-(N-((trans)-3-hydroxycyclobutyl)sulfamoyl)-2-methoxybenzamide]	0.5 nM
COc1ccc(S(=O)(=O)N[C@H]2C[C@@H](O)C2)cc1C(=O)Nc1ccc(F)cc1Cl [Compound 144b, N-(2-chloro-4-fluorophenyl)-5-(N-((cis)-3-hydroxycyclobutyl)sulfamoyl)-2-methoxybenzamide]	0.3 nM
COc1ccc(S(=O)(=O)N[C@H]2C[C@H](O)C2)cc1C(=O)Nc1ccc(F)cc1F [Compound 145a, N-(2,4-difluorophenyl)-5-(N-((trans)-3-hydroxycyclobutyl)sulfamoyl)-2-methoxybenzamide]	2.5 nM
COc1ccc(S(=O)(=O)N[C@H]2C[C@@H](O)C2)cc1C(=O)Nc1ccc(F)cc1F [Compound 145b, N-(2,4-difluorophenyl)-5-(N-((cis)-3-hydroxycyclobutyl)sulfamoyl)-2-methoxybenzamide]	1 nM
COc1ccc(S(=O)(=O)N[C@H]2C[C@H](O)C2)cc1C(=O)Nc1cc(F)ccc1Cl [Compound 146a, N-(2-chloro-5-fluorophenyl)-5-(N-((trans)-3-hydroxycyclobutyl)sulfamoyl)-2-methoxybenzamide]	0.8 nM
COc1ccc(S(=O)(=O)N[C@H]2C[C@@H](O)C2)cc1C(=O)Nc1cc(F)ccc1Cl [Compound 146b, N-(2-chloro-5-fluorophenyl)-5-(N-((cis)-3-hydroxycyclobutyl)sulfamoyl)-2-methoxybenzamide]	1 nM
COCCOC[C@H](C)NS(=O)(=O)c1ccc(OC)c(C(=O)Nc2ccc(F)cc2F)c1 [Compound 147a, (S)—N-(2,4-Difluorophenyl)-2-methoxy-5-(N-(1-(2-methoxyethoxy)propan-2-yl)sulfamoyl)benzamide]	3.4 nM
COCCOC[C@@H](C)NS(=O)(=O)c1ccc(OC)c(C(=O)Nc2ccc(F)cc2F)c1 [Compound 147b, (R)—N-(2,4-Difluorophenyl)-2-methoxy-5-(N-(1-(2-methoxyethoxy)propan-2-yl)sulfamoyl)benzamide]	2.1 nM
COc1ccc(S(N)(=O)=O)cc1C(=O)Nc1ccc(F)cc1F [Compound 148, N-(2,4-Difluorophenyl)-2-methoxy-5-sulfamoylbenzamide]	161 nM
COc1ccc(S(=O)(=O)N[C@H]2CCOC2)cc1C(=O)Nc1ccccc1C(F)(F)F [Compound 149, (S)-2-Methoxy-5-(N-(tetrahydrofuran-3-yl)sulfamoyl)-N-(2-(trifluoromethyl)phenyl)benzamide]	8.4 nM
COc1ccc(S(=O)(=O)N[C@H]2CCOC2)cc1C(=O)Nc1ccccc1OC(F)(F)F [Compound 150, (S)-2-Methoxy-5-(N-(tetrahydrofuran-3-yl)sulfamoyl)-N-(2-(trifluoromethoxy)phenyl)benzamide]	9.9 nM
COc1ccc(S(=O)(=O)N[C@H]2CCOC2)cc1C(=O)Nc1ccccc1C1CC1 [Compound 151, (S)—N-(2-Cyclopropylphenyl)-2-methoxy-5-(N-(tetrahydrofuran-3-yl)sulfamoyl) benzamide]	39 nM
COc1ccc(S(=O)(=O)N[C@H]2C[C@H](O)C2)cc1C(=O)Nc1ccccc1Cl [Compound 154]	0.6 nM
COc1ccc(S(=O)(=O)N[C@H]2C[C@@H](O)C2)cc1C(=O)Nc1ccccc1Cl [Compound 155, N-(2-Chlorophenyl)-5-(N-((cis)-3-hydroxycyclobutyl)sulfamoyl)-2-methoxy benzamide]	0.2 nM
COc1ccc(S(=O)(=O)N[C@H]2C[C@H](O)C2)cc1C(=O)Nc1ccc(F)cn1 [Compound 156]	159 nM
COc1ccc(S(=O)(=O)N[C@H]2C[C@@H](O)C2)cc1C(=O)Nc1ccc(F)cn1 [Compound 157, N-(5-Fluoropyridin-2-yl)-5-(N-((cis)-3-hydroxycyclobutyl)sulfamoyl)-2-methoxybenzamide]	53 nM
COc1ccc(S(=O)(=O)N[C@H]2CCOC2)cc1C(=O)Nc1ccc(F)cc1 [Compound 158, (S)—N-(4-Fluorophenyl)-2-methoxy-5-(N-(tetrahydrofuran-3-yl)sulfamoyl) benzamide]	0.17 nM
COc1ccc(S(=O)(=O)N[C@H]2CCOC2)cc1C(=O)Nc1cccc(C)c1 [Compound 159]	0.7 nM
COc1ccc(S(=O)(=O)N[C@H]2CCOC2)cc1C(=O)Nc1ccc(F)c(C(F)(F)F)c1 [Compound 160, (S)—N-(4-Fluoro-3-(trifluoromethyl)phenyl)-2-methoxy-5-(N-(tetrahydrofuran-3-yl)sulfamoyl)benzamide]	4.6 nM
COc1ccc(S(=O)(=O)N[C@H]2CCOC2)cc1C(=O)Nc1cc(C)c(F)cn1 [Compound 161, (S)—N-(5-Fluoro-4-methylpyridin-2-yl)-2-methoxy-5-(N-(tetrahydrofuran-3-yl)sulfamoyl)benzamide]	79 nM
COc1ccc(S(=O)(=O)N[C@H]2CCOC2)cc1C(=O)Nc1ccc(F)c(C2CC2)n1 [Compound 162, (S)—N-(6-Cyclopropyl-5-fluoropyridin-2-yl)-2-methoxy-5-(N-(tetrahydrofuran-3-yl)sulfamoyl)benzamide]	0.5 nM
COc1ccc(S(=O)(=O)N[C@H]2CCOC2)cc1C(=O)Nc1ccccc1C [Compound 163, (S)-2-Methoxy-5-(N-(tetrahydrofuran-3-yl)sulfamoyl)-N-(o-tolyl)benzamide]	0.9 nM
COc1ccc(S(=O)(=O)N[C@H]2CCOC2)cc1C(=O)Nc1ccccc1C#N [Compound 164]	1.1 nM
COc1ccc(S(=O)(=O)N[C@H]2CCOC2)cc1C(=O)Nc1ccncn1 [Compound 165, (S)-2-Methoxy-N-(pyrimidin-4-yl)-5-(N-(tetrahydrofuran-3-yl)sulfamoyl) benzamide]	511 nM
COc1ccccc1NC(=O)c1cc(S(=O)(=O)N[C@H]2CCOC2)ccc1OC [Compound 166, (S)-2-Methoxy-N-(2-methoxyphenyl)-5-(N-(tetrahydrofuran-3-yl)sulfamoyl) benzamide]	0.16 nM
